Experimental data taken from the supplement of paper PMC10307832.

Legend:
Experiment in all cases: relative viability (nuclei count vs DMSO), 5 days (fraction); higher = more cells survive
A-427 = tested on: A-427
Method in brief: (§1)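 Five library-drug doses in √10 steps were combined with a fixed anchor-drug dose, or a single drug was given alone, by pin tool to lung cancer cell lines in 1536-well plates the day after seeding. Nuclei were stained and counted after 5 days. Relative viability is the nuclei count in treated wells over that in vehicle wells, taken as the median of duplicate plates.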

NCI-H727 = tested on: NCI-H727
Method in brief: as §1

LU99A = tested on: LU99A
Method in brief: as §1

EKVX = tested on: EKVX
Method in brief: as §1

PC-14 = tested on: PC-14
Method in brief: as §1

NCI-H322M = tested on: NCI-H322M
Method in brief: as §1

SK-LU-1 = tested on: SK-LU-1
Method in brief: as §1

NCI-H1793 = tested on: NCI-H1793
Method in brief: as §1

NCI-H1666 = tested on: NCI-H1666
Method in brief: as §1

LOU-NH91 = tested on: LOU-NH91
Method in brief: as §1

COR-L23 = tested on: COR-L23
Method in brief: as §1

NCI-H1944 = tested on: NCI-H1944
Method in brief: as §1

NCI-H1650 = tested on: NCI-H1650
Method in brief: as §1

NCI-H520 = tested on: NCI-H520
Method in brief: as §1

HARA = tested on: HARA
Method in brief: as §1

PC-3 [JPC-3] = tested on: PC-3 [JPC-3]
Method in brief: as §1

NCI-H3122 = tested on: NCI-H3122
Method in brief: as §1

NCI-H2170 = tested on: NCI-H2170
Method in brief: as §1

LCLC-103H = tested on: LCLC-103H
Method in brief: as §1

NCI-H1915 = tested on: NCI-H1915
Method in brief: as §1

BEN = tested on: BEN
Method in brief: as §1

LC-2-ad = tested on: LC-2-ad
Method in brief: as §1

NCI-H2087 = tested on: NCI-H2087
Method in brief: as §1

`C=C1C(=O)O[C@@H](CCCCCCCC)[C@@H]1C(=O)O` [C-75] + Nc1ncn([C@H]2C[C@H](O)[C@@H](CO)O2)c(=O)n1 [Decitabine] (partner 2 µM) showed a relative viability (A-427; first compound 0.08 µM) of 0.607, a relative viability (A-427; first compound 0.253 µM) of 0.533 and a relative viability (A-427; first compound 0.8 µM) of 0.487. For the same compound, the relative viability (A-427; first compound 2.53 µM) was 0.428, the relative viability (A-427; first compound 8 µM) was 0.512 and the relative viability (NCI-H727; first compound 0.08 µM) was 0.887. For the same compound, the relative viability (NCI-H727; first compound 0.253 µM) was 0.955, the relative viability (NCI-H727; first compound 0.8 µM) was 0.807 and the relative viability (NCI-H727; first compound 2.53 µM) was 0.767. The relative viability (NCI-H727; first compound 8 µM) was 0.873, the relative viability (LU99A; first compound 0.08 µM) was 0.831 and the relative viability (LU99A; first compound 0.253 µM) was 0.78. The relative viability (LU99A; first compound 0.8 µM) was 0.841, the relative viability (LU99A; first compound 2.53 µM) was 0.83 and the relative viability (LU99A; first compound 8 µM) was 0.79. For the same compound, the relative viability (EKVX; first compound 0.08 µM) was 0.399, the relative viability (EKVX; first compound 0.253 µM) was 0.397 and the relative viability (EKVX; first compound 0.8 µM) was 0.336. It also gave a relative viability (EKVX; first compound 8 µM) of 0.325, a relative viability (PC-14; first compound 0.08 µM) of 0.226 and a relative viability (PC-14; first compound 0.253 µM) of 0.233. It also gave a relative viability (PC-14; first compound 0.8 µM) of 0.216, a relative viability (PC-14; first compound 2.53 µM) of 0.191 and a relative viability (PC-14; first compound 8 µM) of 0.168. The relative viability (NCI-H322M; first compound 0.08 µM) was 0.693, the relative viability (NCI-H322M; first compound 0.253 µM) was 0.782 and the relative viability (NCI-H322M; first compound 0.8 µM) was 0.604. The relative viability (NCI-H322M; first compound 8 µM) was 0.66, the relative viability (SK-LU-1; first compound 0.08 µM) was 0.64 and the relative viability (SK-LU-1; first compound 0.253 µM) was 0.588. For the same compound, the relative viability (SK-LU-1; first compound 0.8 µM) was 0.616, the relative viability (SK-LU-1; first compound 2.53 µM) was 0.532 and the relative viability (SK-LU-1; first compound 8 µM) was 0.467. The relative viability (NCI-H1793; first compound 0.08 µM) was 0.485, the relative viability (NCI-H1793; first compound 0.253 µM) was 0.571 and the relative viability (NCI-H1793; first compound 2.53 µM) was 0.275. It also gave a relative viability (NCI-H1793; first compound 8 µM) of 0.449, a relative viability (NCI-H1666; first compound 0.08 µM) of 0.741 and a relative viability (NCI-H1666; first compound 0.253 µM) of 0.786. For the same compound, the relative viability (NCI-H1666; first compound 0.8 µM) was 0.709, the relative viability (NCI-H1666; first compound 2.53 µM) was 0.638 and the relative viability (NCI-H1666; first compound 8 µM) was 0.678. It also gave a relative viability (LOU-NH91; first compound 0.08 µM) of 0.83, a relative viability (LOU-NH91; first compound 0.253 µM) of 0.734 and a relative viability (LOU-NH91; first compound 0.8 µM) of 0.752. The relative viability (LOU-NH91; first compound 8 µM) was 0.792, the relative viability (COR-L23; first compound 0.08 µM) was 0.483 and the relative viability (COR-L23; first compound 0.253 µM) was 0.486. For the same compound, the relative viability (COR-L23; first compound 0.8 µM) was 0.415, the relative viability (COR-L23; first compound 2.53 µM) was 0.459 and the relative viability (COR-L23; first compound 8 µM) was 0.396. The relative viability (NCI-H1944; first compound 0.08 µM) was 0.423, the relative viability (NCI-H1944; first compound 0.253 µM) was 0.471 and the relative viability (NCI-H1944; first compound 0.8 µM) was 0.35. It also gave a relative viability (NCI-H1944; first compound 2.53 µM) of 0.368, a relative viability (NCI-H1944; first compound 8 µM) of 0.461 and a relative viability (NCI-H1650; first compound 0.08 µM) of 0.362. The relative viability (NCI-H1650; first compound 0.253 µM) was 0.384, the relative viability (NCI-H1650; first compound 0.8 µM) was 0.453 and the relative viability (NCI-H1650; first compound 8 µM) was 0.387. It also gave a relative viability (NCI-H520; first compound 0.08 µM) of 0.488, a relative viability (NCI-H520; first compound 0.253 µM) of 0.522 and a relative viability (NCI-H520; first compound 0.8 µM) of 0.498. For the same compound, the relative viability (NCI-H520; first compound 2.53 µM) was 0.456, the relative viability (NCI-H520; first compound 8 µM) was 0.356 and the relative viability (HARA; first compound 0.08 µM) was 0.538. For the same compound, the relative viability (HARA; first compound 0.253 µM) was 0.444, the relative viability (HARA; first compound 0.8 µM) was 0.565 and the relative viability (HARA; first compound 2.53 µM) was 0.535. The relative viability (HARA; first compound 8 µM) was 0.756, the relative viability (PC-3 [JPC-3]; first compound 0.08 µM) was 0.78 and the relative viability (PC-3 [JPC-3]; first compound 0.253 µM) was 0.798. It also gave a relative viability (PC-3 [JPC-3]; first compound 0.8 µM) of 0.782, a relative viability (PC-3 [JPC-3]; first compound 2.53 µM) of 0.793 and a relative viability (PC-3 [JPC-3]; first compound 8 µM) of 0.91. For the same compound, the relative viability (NCI-H3122; first compound 0.08 µM) was 0.423, the relative viability (NCI-H3122; first compound 0.253 µM) was 0.486 and the relative viability (NCI-H3122; first compound 0.8 µM) was 0.355. For the same compound, the relative viability (NCI-H3122; first compound 2.53 µM) was 0.346, the relative viability (NCI-H3122; first compound 8 µM) was 0.455 and the relative viability (NCI-H2170; first compound 0.08 µM) was 0.479. It also gave a relative viability (NCI-H2170; first compound 0.253 µM) of 0.505, a relative viability (NCI-H2170; first compound 0.8 µM) of 0.449 and a relative viability (NCI-H2170; first compound 2.53 µM) of 0.422. It also gave a relative viability (NCI-H2170; first compound 8 µM) of 0.401, a relative viability (LCLC-103H; first compound 0.08 µM) of 0.697 and a relative viability (LCLC-103H; first compound 0.253 µM) of 0.716. For the same compound, the relative viability (LCLC-103H; first compound 0.8 µM) was 0.674, the relative viability (LCLC-103H; first compound 2.53 µM) was 0.623 and the relative viability (LCLC-103H; first compound 8 µM) was 0.725. The relative viability (NCI-H1915; first compound 0.08 µM) was 0.254, the relative viability (NCI-H1915; first compound 0.253 µM) was 0.24 and the relative viability (NCI-H1915; first compound 0.8 µM) was 0.296. For the same compound, the relative viability (NCI-H1915; first compound 2.53 µM) was 0.24, the relative viability (NCI-H1915; first compound 8 µM) was 0.225 and the relative viability (BEN; first compound 0.08 µM) was 0.764. The relative viability (BEN; first compound 0.253 µM) was 0.733, the relative viability (BEN; first compound 0.8 µM) was 0.654 and the relative viability (BEN; first compound 2.53 µM) was 0.738. It also gave a relative viability (BEN; first compound 8 µM) of 0.713, a relative viability (LC-2-ad; first compound 0.08 µM) of 0.785 and a relative viability (LC-2-ad; first compound 0.253 µM) of 0.809. It also gave a relative viability (LC-2-ad; first compound 0.8 µM) of 0.755, a relative viability (LC-2-ad; first compound 2.53 µM) of 0.771 and a relative viability (LC-2-ad; first compound 8 µM) of 0.837. For the same compound, the relative viability (NCI-H2087; first compound 0.08 µM) was 0.281, the relative viability (NCI-H2087; first compound 0.253 µM) was 0.269 and the relative viability (NCI-H2087; first compound 0.8 µM) was 0.35. It also gave a relative viability (NCI-H2087; first compound 2.53 µM) of 0.217 and a relative viability (NCI-H2087; first compound 8 µM) of 0.231.
